Assay type in all cases: cell-based
Assay [1] concerns the target T1, GIP receptor (Homo sapiens, UniProt P48546).
T1 sequence (P48546 22-466): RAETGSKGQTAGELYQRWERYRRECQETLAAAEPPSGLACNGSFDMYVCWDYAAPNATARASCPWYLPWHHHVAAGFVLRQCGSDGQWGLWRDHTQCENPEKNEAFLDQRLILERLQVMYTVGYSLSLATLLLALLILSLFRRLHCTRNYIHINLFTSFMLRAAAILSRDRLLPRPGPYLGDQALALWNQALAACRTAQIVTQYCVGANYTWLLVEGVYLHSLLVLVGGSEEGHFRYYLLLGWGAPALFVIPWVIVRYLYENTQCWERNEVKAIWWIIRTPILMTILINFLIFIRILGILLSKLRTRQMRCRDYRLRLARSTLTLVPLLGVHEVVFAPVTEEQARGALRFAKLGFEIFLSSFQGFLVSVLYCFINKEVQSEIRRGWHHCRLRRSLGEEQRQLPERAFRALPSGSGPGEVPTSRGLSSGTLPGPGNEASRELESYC
The assay is described as follows: PathHunter β-arrestin assay, GIP receptor. More on the design: host or cells: PathHunter CHO-K1 GIPR β-Arrestin Cell Line. The following applies: β-arrestin-2 recruitment, PathHunter CHO-K1 GIPR β-Arrestin Cell Line, 90 min at 37° C.; normalized to GIP; read-out: GIPR β Arrestin EC50. In general terms: Recruitment of arrestin is a read-out of receptor activation apart from second messengers.

Assay [2] concerns the target T2, GLP-1 receptor (Homo sapiens, UniProt P43220). The assay can be described thus: PathHunter β-arrestin assay, GLP-1 receptor. More on the design: host or cells: PathHunter CHO-K1 GLP1R β-Arrestin Cell Line. The following applies: β-arrestin-2 recruitment, PathHunter CHO-K1 GLP1R β-Arrestin Cell Line, 90 min at 37° C.; normalized to GLP-1; read-out: GLP-1R β Arrestin EC50.

For assay [3], the target named is T2, GLP-1 receptor. The assay can be described thus: HitHunter cAMP assay, GLP-1 receptor. The following applies: for EC50: CHO cells stably expressing human GLP-1 receptor, cAMP accumulation, 30 min, read-out: EC50 GLP-1R; for Emax: CHO cells, cAMP, normalized to maximum signal from GLP-1 (high) and DMSO (low), read-out: Emax GLP-1R. (Cyclic AMP is a second messenger, typically raised through Gs and lowered through Gi signalling.)

For assay [4], the target named is T1, GIP receptor. The assay can be described thus: HitHunter cAMP assay, GIP receptor. The following applies: for EC50: CHO cells stably expressing GIP receptor, cAMP accumulation, 30 min, read-out: EC50 GIP-1R; for Emax: CHO cells, cAMP, normalized to maximum signal from GIP (high) and DMSO (low), read-out: Emax GIP-1R.

*1 amine or outer side, *2 acyl side, *3 side chain or, on linkers, in order; H or OH if unused. Where a SMILES comes first, the peptide text is derived from it. Side-chain parts run from the residue outwards. [ ]: non-standard residue; d: D form. The star is where a group is joined. Isobutyryl(2-(3-CN-5-F-Ph)) = CC(C)(C(=O)*)c1cc(F)cc(C#N)c1; Ala(1H-tetrazol-5-yl) = N[C@@H](Cc1nnn[nH]1)C(=O)O; C20 diacid = O=C(O)CCCCCCCCCCCCCCCCCCC(=O)*; γGlu = O=C(O)[C@H](CCC(=O)[*:2])N[*:1]; X80 = CC1CC(C(=O)*)(n2cccn2)CCO1; X42 = CCOc1cnn(C(C)(C)C(=O)*)c1; X64 = CC(C)(C(=O)*)c1ccccn1; AEEA = NCCOCCOCC(=O)O; Aib = CC(C)(N)C(=O)O; βAla = NCCC(=O)O

T2 sequence (P43220 24-463): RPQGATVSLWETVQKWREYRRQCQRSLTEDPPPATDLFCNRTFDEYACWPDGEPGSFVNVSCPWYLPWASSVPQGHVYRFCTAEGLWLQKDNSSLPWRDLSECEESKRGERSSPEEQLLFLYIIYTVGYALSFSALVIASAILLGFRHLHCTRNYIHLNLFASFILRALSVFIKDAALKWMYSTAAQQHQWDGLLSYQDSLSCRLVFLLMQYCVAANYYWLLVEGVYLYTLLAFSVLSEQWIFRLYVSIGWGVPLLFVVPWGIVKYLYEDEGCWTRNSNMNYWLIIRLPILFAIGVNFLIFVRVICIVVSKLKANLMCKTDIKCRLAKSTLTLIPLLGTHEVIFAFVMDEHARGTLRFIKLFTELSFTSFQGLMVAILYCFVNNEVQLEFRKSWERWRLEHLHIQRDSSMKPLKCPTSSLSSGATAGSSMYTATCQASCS

As a reminder, the EC50 is the concentration that produces a half-maximal response. In general, Emax refers to the size of the effect at its maximum, as opposed to the concentration needed. With `CC[C@H](C)[C@H](NC(=O)[C@H](CC(C)C)NC(=O)[C@H](Cc1c[nH]c2ccccc12)NC(=O)[C@H](CCC(N)=O)NC(=O)[C@@H](NC(=O)[C@H](Cc1ccccc1)NC(=O)[C@H](C)NC(=O)[C@H](CCCCNC(=O)COCCOCCNC(=O)COCCOCCNC(=O)CC[C@H](NC(=O)CCCCCCCCCCCCCCCCCCC(=O)O)C(=O)O)NC(=O)[C@H](CCC(N)=O)NC(=O)[C@H](C)NC(=O)[C@@H](NC(=O)[C@H](CCCCN)NC(=O)[C@H](CC(=O)O)NC(=O)[C@H](CC(C)C)NC(=O)C(C)(C)NC(=O)[C@@H](NC(=O)[C@H](CO)NC(=O)[C@H](Cc1ccc(O)cc1)NC(=O)[C@H](CC(=O)O)NC(=O)[C@H](CO)NC(=O)[C@@H](NC(=O)[C@H](Cc1ccccc1)NC(=O)[C@@H](NC(=O)CNC(=O)[C@H](Cc1nn[nH]n1)NC(=O)CCNC(=O)C(C)(C)c1cc(F)cc(C#N)c1)[C@@H](C)O)[C@@H](C)O)[C@@H](C)CC)[C@@H](C)CC)C(C)C)C(=O)N[C@@H](C)C(=O)NCC(=O)NCC(=O)N1CCC[C@H]1C(=O)N[C@@H](CO)C(=O)N[C@@H](CO)C(=O)NCC(=O)N[C@@H](C)C(=O)N1CCC[C@H]1C(=O)N1CCC[C@H]1C(=O)N1CCC[C@H]1C(=O)N[C@@H](CO)C(N)=O` [Compound 136] ({Isobutyryl(2-(3-CN-5-F-Ph))-βAla}-[Ala(1H-tetrazol-5-yl)]GTFTSDYSI[Aib]LDKIAQK([AEEA-AEEA-γGlu-C20 diacid])AFVQWLIAGGPSSGAPPPS-NH2), the EC50 at GIP receptor [1] is below 1000 nM; on GLP-1 receptor [2], above 1000 nM; on GLP-1 receptor [3], below 0.1 nM; at GIP receptor [4] it was 1 to 10 nM. Moreover, the values for the Emax on GLP-1 receptor [3] and at GIP receptor [4] were 101% and 99%, respectively.

`CC[C@H](C)[C@H](NC(=O)[C@H](CC(C)C)NC(=O)[C@H](Cc1c[nH]c2ccccc12)NC(=O)[C@H](CCC(N)=O)NC(=O)[C@@H](NC(=O)[C@H](Cc1ccccc1)NC(=O)[C@H](C)NC(=O)[C@H](CCCCNC(=O)COCCOCCNC(=O)COCCOCCNC(=O)CC[C@H](NC(=O)CCCCCCCCCCCCCCCCCCC(=O)O)C(=O)O)NC(=O)[C@H](CCC(N)=O)NC(=O)[C@H](C)NC(=O)[C@@H](NC(=O)[C@H](CCCCN)NC(=O)[C@H](CC(=O)O)NC(=O)[C@H](CC(C)C)NC(=O)C(C)(C)NC(=O)[C@@H](NC(=O)[C@H](CO)NC(=O)[C@H](Cc1ccc(O)cc1)NC(=O)[C@H](CC(=O)O)NC(=O)[C@H](CO)NC(=O)[C@@H](NC(=O)[C@H](Cc1ccccc1)NC(=O)[C@@H](NC(=O)CNC(=O)[C@H](CCC(=O)O)NC(=O)CCNC(=O)C(C)(C)c1ccccn1)[C@@H](C)O)[C@@H](C)O)[C@@H](C)CC)[C@@H](C)CC)C(C)C)C(=O)N[C@@H](C)C(=O)NCC(=O)NCC(=O)N1CCC[C@H]1C(=O)N[C@@H](CO)C(=O)N[C@@H](CO)C(=O)NCC(=O)N[C@@H](C)C(=O)N1CCC[C@H]1C(=O)N1CCC[C@H]1C(=O)N1CCC[C@H]1C(=O)N[C@@H](CO)C(N)=O` [Compound 237] ({X64-βAla}-EGTFTSDYSI[Aib]LDKIAQK([AEEA-AEEA-γGlu-C20 diacid])AFVQWLIAGGPSSGAPPPS-NH2): the 50% effective concentration (EC50) is below 1000 nM at GIP receptor [1], above 1000 nM at GLP-1 receptor [2], below 0.1 nM at GLP-1 receptor [3] and 1 to 10 nM on GIP receptor [4]. Besides, the Emax worked out at 93% on GLP-1 receptor [3] and 91% on GIP receptor [4].

Take `CC[C@H](C)[C@H](NC(=O)[C@H](CO)NC(=O)[C@H](Cc1ccc(O)cc1)NC(=O)[C@H](CC(=O)O)NC(=O)[C@H](CO)NC(=O)[C@@H](NC(=O)[C@H](Cc1ccccc1)NC(=O)[C@@H](NC(=O)CNC(=O)[C@H](CCC(=O)O)NC(=O)CCNC(=O)C1(n2cccn2)CCOC(C)C1)[C@@H](C)O)[C@@H](C)O)C(=O)N[C@@H](Cc1ccc(O)cc1)C(=O)N[C@@H](CC(C)C)C(=O)N[C@@H](CC(=O)O)C(=O)N[C@@H](CCCCN)C(=O)N[C@@H](CCC(N)=O)C(=O)N[C@@H](C)C(=O)N[C@@H](C)C(=O)NC(C)(C)C(=O)N[C@@H](CCC(=O)O)C(=O)N[C@@H](Cc1ccccc1)C(=O)N[C@H](C(=O)N[C@@H](CC(N)=O)C(=O)N[C@@H](Cc1c[nH]c2ccccc12)C(=O)N[C@@H](CC(C)C)C(=O)N[C@@H](CC(C)C)C(=O)N[C@@H](C)C(=O)NCC(=O)NCC(=O)N1CCC[C@H]1C(=O)N[C@@H](CO)C(=O)N[C@@H](CO)C(=O)NCC(=O)N[C@@H](C)C(=O)N1CCC[C@H]1C(=O)N1CCC[C@H]1C(=O)N1CCC[C@H]1C(=O)N[C@@H](CO)C(=O)N[C@@H](CCCCNC(=O)COCCOCCNC(=O)COCCOCCNC(=O)CC[C@H](NC(=O)CCCCCCCCCCCCCCCCCCC(=O)O)C(=O)O)C(N)=O)C(C)C` (stereo partly drawn) [Compound 101]: the EC50 was above 1000 nM on GIP receptor [1], above 1000 nM at GLP-1 receptor [2], 1 to 10 nM at GLP-1 receptor [3] and 10 to 100 nM at GIP receptor [4]. For the same molecule, the Emax at GLP-1 receptor [3] worked out at 93%; on GIP receptor [4] it was 96%.

For the molecule `CCOc1cnn(C(C)(C)C(=O)NCCC(=O)N[C@@H](CCC(=O)O)C(=O)NCC(=O)N[C@H](C(=O)N[C@@H](Cc2ccccc2)C(=O)N[C@H](C(=O)N[C@@H](CO)C(=O)N[C@@H](CC(=O)O)C(=O)N[C@@H](Cc2ccc(O)cc2)C(=O)N[C@@H](CO)C(=O)N[C@H](C(=O)NC(C)(C)C(=O)N[C@@H](CC(C)C)C(=O)N[C@@H](CC(=O)O)C(=O)N[C@@H](CCCCN)C(=O)N[C@H](C(=O)N[C@@H](C)C(=O)N[C@@H](CCC(N)=O)C(=O)N[C@@H](CCCCNC(=O)COCCOCCNC(=O)COCCOCCNC(=O)CC[C@H](NC(=O)CCCCCCCCCCCCCCCCCCC(=O)O)C(=O)O)C(=O)N[C@@H](C)C(=O)N[C@@H](Cc2ccccc2)C(=O)N[C@H](C(=O)N[C@@H](CCC(N)=O)C(=O)N[C@@H](Cc2c[nH]c3ccccc23)C(=O)N[C@@H](CC(C)C)C(=O)N[C@H](C(=O)N[C@@H](C)C(=O)NCC(=O)NCC(=O)N2CCC[C@H]2C(=O)N[C@@H](CO)C(=O)N[C@@H](CO)C(=O)NCC(=O)N[C@@H](C)C(=O)N2CCC[C@H]2C(=O)N2CCC[C@H]2C(=O)N2CCC[C@H]2C(=O)N[C@@H](CO)C(N)=O)[C@@H](C)CC)C(C)C)[C@@H](C)CC)[C@@H](C)CC)[C@@H](C)O)[C@@H](C)O)c1` [Compound 152] ({X42-βAla}-EGTFTSDYSI[Aib]LDKIAQK([AEEA-AEEA-γGlu-C20 diacid])AFVQWLIAGGPSSGAPPPS-NH2), the EC50 on GIP receptor [1] was above 1000 nM; on GLP-1 receptor [2], above 1000 nM; at GLP-1 receptor [3], 0.1 to 1 nM; at GIP receptor [4], 10 to 100 nM. Moreover, the Emax at GLP-1 receptor [3] was 98%; at GIP receptor [4] it was 104%.

Turning to `CC[C@H](C)[C@H](NC(=O)[C@H](CC(C)C)NC(=O)[C@H](Cc1c[nH]c2ccccc12)NC(=O)[C@H](CCC(N)=O)NC(=O)[C@@H](NC(=O)[C@H](Cc1ccccc1)NC(=O)[C@H](C)NC(=O)[C@H](CCCCNC(=O)COCCOCCNC(=O)COCCOCCNC(=O)CC[C@H](NC(=O)CCCCCCCCCCCCCCCCCCC(=O)O)C(=O)O)NC(=O)[C@H](CCC(N)=O)NC(=O)[C@H](C)NC(=O)[C@@H](NC(=O)[C@H](CCCCN)NC(=O)[C@H](CC(=O)O)NC(=O)[C@H](CC(C)C)NC(=O)C(C)(C)NC(=O)[C@@H](NC(=O)[C@H](CO)NC(=O)[C@H](Cc1ccc(O)cc1)NC(=O)[C@H](CC(=O)O)NC(=O)[C@H](CO)NC(=O)[C@@H](NC(=O)[C@H](Cc1ccccc1)NC(=O)[C@@H](NC(=O)CNC(=O)[C@H](CCC(=O)O)NC(=O)CCNC(=O)C1(n2cccn2)CCOC(C)C1)[C@@H](C)O)[C@@H](C)O)[C@@H](C)CC)[C@@H](C)CC)C(C)C)C(=O)N[C@@H](C)C(=O)NCC(=O)NCC(=O)N1CCC[C@H]1C(=O)N[C@@H](CO)C(=O)N[C@@H](CO)C(=O)NCC(=O)N[C@@H](C)C(=O)N1CCC[C@H]1C(=O)N1CCC[C@H]1C(=O)N1CCC[C@H]1C(=O)N[C@@H](CO)C(N)=O` (stereo partly drawn) [Compound 105] ({X80-βAla}-EGTFTSDYSI[Aib]LDKIAQK([AEEA-AEEA-γGlu-C20 diacid])AFVQWLIAGGPSSGAPPPS-NH2), the EC50 is above 1000 nM at GIP receptor [1], above 1000 nM at GLP-1 receptor [2], 0.1 to 1 nM at GLP-1 receptor [3] and 1 to 10 nM on GIP receptor [4]. Also, the Emax on GLP-1 receptor [3] is 95%; at GIP receptor [4], 112%.

The record behind these values is US12281149B2, “Modulators of G-protein coupled receptors” (priority 2021, dated 2025).
